Measured values from US20030113330A1, “Methods for treating pulmonary fibrosis” (priority 1999, published 2003).
Read-outs that look alike come from different tables or passages of the source.

How the values were obtained:
[1] = test system: primary rat AEC; experiment: Fas ligand-induced apoptosis of primary rat alveolar epithelial cells; assay type: cell-based; conditions: captopril, lisinopril 500 ng/ml; caspase inhibitors 60 uM
Experimental: Lung Cell Isolation and Detection of Apoptosis In Vitro. Primary alveolar epithelial cells (AEC) were isolated from adult male Wistar rats as described above. The primary cells were studied at day two of culture, a time at which they are type II cell-like by accepted morphologic and biochemical criteria, see Paine et al., Am. J. Physiol. […] All cells were seeded in 24-well or 6-well chambers, and all experiments were conducted at subconfluent densities of 80-90% in serum-free Ham's F12 medium. Test reagents were diluted with Ham's F12 medium and were applied for 20 hours at 37° C. in a 5% CO2 incubator.
Detection of apoptotic cells with propidium iodide (PI) was conducted as described above, following digestion of ethanol-fixed cells with DNAse-free RNAse in PBS containing 5 ug/ml PI.
Expression of FAS by alveolar epithelial cells is observed during bleomycin-induced fibrogenesis in mice. See Hagimoto, et al., Am. J. Respir. Cell Mol. Biol. 16:91-101 (1997). […] Apoptosis was detected by quantitation of fragmented nuclei (see above).
Cell Culture and Detection of Apoptosis. The human lung adenocarcinoma cell line A549 was obtained from American Type Culture Collection and cultured in Ham's F12 medium supplemented with 10% fetal bovine serum (FBS). Primary alveolar epithelial cells were isolated from adult male Wistar rats as described earlier (Uhal, B. D., I. Joshi, A. True, S. Mundle, A. Raza, A. Pardo and M. Selman. Fibroblasts isolated after fibrotic lung injury induce apoptosis of alveolar epithelial cells in vitro. Am. J. Physiol. 269:L819-L828, 1995); Wang, R., A. Zagariya, 0. Ibarra-Sunga, C. […] Am. J. Physiol. 276:L885-L889 (1999)). […] All cells were seeded in 24-well or 6-well chambers, and all experiments were conducted at subconfluent densities of 80-90% in serum-free Ham's F12 medium. Test reagents were diluted with serum-free Ham's F12 medium and were applied under serum-free conditions for 20 hours at 37C. in a 5% CO2 incubator. Detection of apoptotic cells with propidium iodide (PI) was conducted as described above Am. J. Physiol. 275:L1013-1017 (1998); Uhal et al., following digestion of ethanol-fixed cells with DNAse-free RNAse in PBS containing 5 μg/ml PI. In all assays, detached cells were retained by centrifugation of the culture vessels during fixation with 70% ethanol, or by retention of culture media and recovery by centrifugation before assay.
Apoptosis was detected by nuclear fragmentation as described above.

[2] = test system: primary rat AEC; experiment: Angiotensin II-induced apoptosis in primary rat AEC (nuclear fragmentation, PI); assay type: cell-based; conditions: ANGII 5.0 uM; saralasin 50 ug/ml, lisinopril 500 ng/ml
Text: Cell Culture. The human lung adenocarcinoma cell line A549 was obtained from American Type Culture Collection and cultured in Ham's F12 medium supplemented with 10% fetal bovine serum (FBS). Primary alveolar epithelial cells were isolated from adult male Wistar rats as described in Uhal et al., Am. J. Physiol. Suppl. (Oct.) 261:110-117 (1991) and Uhal et al., Am. J. Physiol. 269:L819-L828 (1995). The primary cells were studied at day two of culture, a time at which they are type II cell-like by accepted morphologic and biochemical criteria, see Uhal, Am. J. Physiol. 272:L1031-L1045 (1997). […] J. Physiol. Suppl. (October) 261:110-117 (1991). All cells were seeded in 24-well or 6-well chambers, and all experiments were conducted at subconfluent densities of 80-90% in serum-free Ham's F12 medium. Test reagents were diluted with Ham's F12 medium and were applied for 20 h at 37° C. in a 5% CO2 incubator.
Detection of Apoptosis. Detection of apoptotic cells with propidium iodide (PI) was conducted as described in Uhal, et al., Am. J. Physiol. 275:L1013-1017 (1998) following digestion of ethanol-fixed cells with DNAse-free RNAse in PBS containing 5 ug/ml PI. Assay of Annexin V binding by flow cytometry was performed essentially as described for human lung fibroblasts in Uhal, et al., Am. J. Physiol. 275:L998-L1005 (1998) after trypsinization of cells from culture vessels. Assay of Caspase-3 activity was performed on viable suspension cultures as reported in Uhal, et al., Am. J. Physiol. 275:L1013-1017 (1998). In all assays, detached cells were retained by centrifugation of the culture vessels during fixation with 70% ethanol, or by retention of culture media and recovery by centrifugation before assay.
(§1) For microscopy, cells were cultured on glass cover slips, incubated with test reagents and fixed with 70% ethanol. The fixed cells were immunolabeled overnight at 4° C. with monoclonal antibodies to cytokeratins 7 and 19 (Chemicon International, Temecula, Calif.), and then for one hour at 37° C. with anti-mouse IgG-rhodamine and DNAse-free RNAse (Boehringer Mannheim, Indianapolis, Ind.) The cover slips were then rinsed in distilled water three times and mounted under Fluoromount Solution (Southern Biotechnology Associates, Birmingham, Ala.) containing 5 ug/ml propidium iodide. Photomicroscopy was performed as described in Uhal, et al., Am. J. Physiol. 275:L1013-1017 (1998).
Apoptosis in alveolar epithelial cells was quantitated by fluorescence detection of chromatin condensation and nuclear fragmentation in alcohol-fixed cells stained with propidium iodide. See Uhal, et al., Am. J. Physiol. 275:L1013-1017 (1998). […] After 20 h, the culture vessel was centrifuged to retain detached cells and labeled with anticytokeratin antibodies and propidium iodide. […] Double labeling with PI and monoclonal antibodies to cytokeratins 7 and 19 identified cells with both apoptotic nuclear morphology and positive anticytokeratin immunoreactivity.

[3] = test system: A549 cells
Experimental: (§2) The human lung adenocarcinoma cell line A549 (ATCC) was cultured in Ham's F12 medium supplemented with 10% fetal bovine serum (FBS). Primary alveolar epithelial cells were isolated from adult male Wistar rats. The primary cells were studied at day two of culture, a time at which they are type II cell-like by accepted morphologic and biochemical criteria. […] All cells were seeded in 24-well or 6-well chambers, and all experiments were conducted at subconfluent densities of 80-90% in serum-free Ham's F12 medium. Test reagents were diluted with Ham's F12 medium and were applied for 20 hours at 37C. in a 5% CO2 incubator.
(§3) Apoptotic cells were detected using propidium iodide (PI) following digestion of ethanol-fixed cells with DNAse-free RNAse in PBS containing 5 ug/ml PI. […] In replicate culture vessels, necrosis was detected as the loss of exclusion of PI after application of the vital dye directly to the cell culture medium at 5 ug/ml final concentration. Red fluorescent (PI-POSITIVE) cells (>570 nm) were scored over the subsequent hour as a percentage of the total cells in any given field. A minimum of 4 separate fields were scored in each of three separate culture vessels per experiment condition; all experiments were performed at least twice and the data were compiled. Although all necrotic cells are PI-positive, some apoptotic cells may also take up the dye but these comprise a minor fraction of the total dead cell population.
(§4) In all assays, detached cells were retained by centrifugation of the culture vessel at 300×g for 10 minutes with a centrifuge rotor designed for culture plates. For detection of necrosis (dye exclusion of PI), the PI was added directly to the cell culture medium immediately before centrifugation of the culture vessel. For detection of apoptosis, ethanol was added directly to the cell culture medium to a final concentration of 70% immediately before the centrifugation. Afterward, the ethanol was carefully removed and the total cell population (attached plus sedimented detached cells) were stained with PI as described above.

[4] = test system: primary rat AEC
Experimental: as §2, §3, §4

[5] = test system: primary rat AECs; experiment: TNF-α-induced apoptosis of primary rat AECs; assay type: cell-based; conditions: purified TNF-α
[6] = test system: human A549 cells; assay type: cell-based; conditions: A549, 20 h
Experimental: (§5) The human lung adenocarcinoma cell line A549 (ATCC) was cultured in Ham's F12 medium supplemented with 10% fetal bovine serum (FBS). Primary alveolar epithelial cells were isolated from adult male Wistar rats. The primary cells were studied at day two of culture, a time at which they are type II cell-like by accepted morphologic and biochemical criteria. All primary cell preparations were of better than 90% purity assessed by acridine orange staining. All cells were seeded in 24-well or 6-well chambers, and all experiments were conducted at subconfluent densities of 80-90% in serum-free Ham's F12 medium. Test reagents were diluted with Ham's F12 medium and were applied for 20 hours at 37C. in a 5% CO2 incubator.
Apoptotic cells were detected using propidium iodide (PI) following digestion of ethanol-fixed cells with DNAse-free RNAse in PBS containing 5 ug/ml PI. […] In replicate culture vessels, necrosis was detected as the loss of exclusion of PI after application of the vital dye directly to the cell culture medium at 5 ug/ml final concentration. Red fluorescent (PI-POSITIVE) cells (>570 nm) were scored over the subsequent hour as a percentage of the total cells in any given field. A minimum of 4 separate fields were scored in each of three separate culture vessels per experiment condition; all experiments were performed at least twice and the data were compiled. […]

[7] = test system: primary cultures of rat AEC; assay type: cell-based; conditions: primary rat AEC, 20 h
Experimental: as §5

[8] = test system: A549 cells; experiment: Amiodarone-induced net cell loss in A549 cultures; assay type: cell-based, human; conditions: 20 hours exposure
Experimental: (§6) Primary alveolar epithelial cells were isolated from adult male Wistar rats. The primary cells were studied at day two of culture, a time at which they are type II cell-like by accepted morphologic and biochemical criteria. All primary cell preparations were of better than 90% purity assessed by acridine orange staining. All cells were seeded in 24-well or 6-well chambers, and all experiments were conducted at subconfluent densities of 80-90% in serum-free Ham's F12 medium. Test reagents were diluted with Ham's F12 medium and were applied for 20 hours at 37C. in a 5% CO2 incubator.
(§7) Importantly, unattached cells were recovered and included in the analyses, and thus the data represent true loss of cells rather than simple detachment from the substratum.

[9] = test system: primary rat AEC; experiment: Amiodarone-induced net cell loss in primary rat AEC cultures; assay type: cell-based; conditions: 20 hours exposure
Experimental: as §6, §7

[10] = AIPT; cited from earlier work
[11] = test system: primary rat AEC; experiment: Angiotensinogen-induced apoptosis in primary rat AEC; assay type: cell-based; conditions: 5 uM
Experimental: Cell Culture. […] J. Physiol. Suppl. […] J. Physiol. […] J. Physiol. […] J. Physiol. Suppl.
Detection of Apoptosis. […] J. Physiol. […] Assay of Annexin V binding by flow cytometry was performed essentially as described for human lung fibroblasts in Uhal, et al., Am. J. Physiol. […] Assay of Caspase-3 activity was performed on viable suspension cultures as reported in Uhal, et al., Am. J. Physiol.
as §1, with “Physiol.” for “Physiol. 275:L1013-1017 (1998).”

[12] = test system: A549 cell line; experiment: Angiotensinogen-induced apoptosis in A549 cells; assay type: cell-based, human
Experimental: Cell Culture. […] J. Physiol. Suppl. (Oct.) 261:110-117 (1991) and Uhal et al., Am. J. Physiol. 269:L819-L828 (1995). […] J. Physiol. 272:L1031-L1045 (1997). […] J. Physiol. Suppl. (October) 261:110-117 (1991).
Detection of Apoptosis. […] J. Physiol. […] Assay of Annexin V binding by flow cytometry was performed essentially as described for human lung fibroblasts in Uhal, et al., Am. J. Physiol. 275:L998-L1005 (1998) after trypsinization of cells from culture vessels. Assay of Caspase-3 activity was performed on viable suspension cultures as reported in Uhal, et al., Am. J. Physiol. 275:L1013-1017 (1998).
as §1

CCCCc1nc(Cl)c(CO)n1Cc1ccc(-c2ccccc2-c2nn[nH]n2)cc1 [Losartan, losartan]
inhibition of Fas ligand-induced apoptosis of primary rat AEC (words) [1]: abrogated
inhibition of ANGII-induced apoptosis of primary rat AEC [2]: abrogated
inhibition of amiodarone-induced apoptosis ([3]; captopril 500 ng/ml, saralasin 50 ug/ml, Losartan 5 pg/ml): completely blocked
inhibition of amiodarone-induced apoptosis ([4]; captopril 500 ng/ml, saralasin 50 ug/ml, Losartan 5 pg/ml, amiodarone 2.5 ug/ml for chelerythrine, orthovanadate): completely blocked
inhibition of TNF-α-induced apoptosis [5]: abrogated

CCCCc1oc2ccccc2c1C(=O)c1cc(I)c(OCCN(CC)CC)c(I)c1 [amiodarone]
concentration at which necrosis / significant cell death begins [6]: 10000 ng/mL
concentration at which significant cell death / toxicity begins [7]: 2500 ng/mL
concentration at which significant cell death / toxicity begins ([7]; listed as AM): 1000 ng/mL
maximum increase in apoptotic cells ([3]; 10 ug/ml AM, 5 ug/ml DES): 10 fold
concentration at which apoptosis begins ([3]; A549): 10000 ng/mL
induction of apoptosis ([4]; 15 ug/ml AM, 5 ug/ml DES): 16 fold
concentration at which significant apoptosis begins ([4]; primary AEC): 2500 ng/mL
effect on total cell number [8]: significantly decreased
effect on total cell number [9]: significantly decreased
estimated mortality of affected patients [10]: 5 to 10%

B1: angiotensinogen: purified angiotensinogen, serum globulin precursor of angiotensin I (protein, UniProt P01019 25-476, looked up)
Angiotensinogen: DRVYIHPFHLVIHNESTCEQLAKANAGKPKDPTFIPAPIQAKTSPVDEKALQDQLVLVAAKLDTEDKLRAAMVGMLANFLGFRIYGMHSELWGVVHGATVLSPTAVFGTLASLYLGALDHTADRLQAILGVPWKDKNCTSRLDAHKVLSALQAVQGLLVAQGRADSQAQLLLSTVVGVFTAPGLHLKQPFVQGLALYTPVVLPRSLDFTELDVAAEKIDRFMQAVTGWKTGCSLMGASVDSTLAFNTYVHFQGKMKGFSLLAEPQEFWVDNSTSVSVPMLSGMGTFQHWSDIQDNFSVTQVPFTESACLLLIQPHYASDLDKVEGLTFQQNSLNWMKKLSPRTIHLTMPQLVLQGSYDLQDLLAQAELPAILHTELNLQKLSNDRIRVGEVLNSIFFELEADEREPTESTQQLNKPEVLEVTLNRPFLFAVYDQSATALHFLGRVANPLSTA
induction of apoptosis by angiotensinogen [11]: induced apoptosis with the same potency as did ANGII
induction of apoptosis by angiotensinogen [12]: not capable of inducing apoptosis
